Results on 20 compounds are retold here after patent US20040186022A1, “Enhanced herbicides” (priority 1999, published 2004).

In one data set the test system is Dry Beans. In words: Synergistic relationship between succinic or citric acid and caprylic acid, testing dry beans. It is filed as in vivo. The settings on record: 3 days after single foliar application, dry bean Vista; for Green Foliage, Overall Effect / Yellow Foliage, Overall Effect: 5 equals profound desiccation. The source says: (§1) The herbicides were applied in the “spray to drip” amount or at a calibrated 20-60 gallons/acre. “Spray to drip” is an uncalibrated application of fluid to foliage, where sufficient spray volume is used to sufficiently saturate the foliage surface until excess fluid begins to drip from the foliage.

Data set [1] deals with navy dry beans (navy Vista). In words: Synergistic interactions of succinic acid and di-ammonium succinate with herbicidal compounds, navy dry beans. The settings on record: for Injury rating, average per plot: scale 1-5. It is filed as in vivo, dry bean (navy).
Source text: as §1

For data set [2], the system named is black beans (dry bean variety T39). In words: Synergistic interactions of succinic acid and di-ammonium succinate with other herbicidal compounds, dry beans (black). The format is in vivo. The settings on record: for Injury rating, average per plot: scale 1-5.
Source text: as §1

In data set [3] the test system is 60 G/a: velvetleaf, black nightshade, redroot pigweed, foxtail and snapbeans; spray to drip: black nightshade, velvetleaf, foxtail and snapbeans. In words: Efficacy of 1.5% succinic acid with oleic, caprylic or pelargonic acid in an emulsification system (Emsorb 6900). It is filed as in vivo. Set-up: Injury rating, total score for 2 evaluation, Spray to drip / Injury rating, total score for 2 evaluation, Total Rating: scale not given here.
Source text: as §1

In data set [4] the test system is chickweed, redtop, velvetleaf, crabgrass and green foxtail. Briefly: Enhancement of herbicidal activity of caprylic/capric acids (c/c) using selected compounds at equimolar amounts. The format is in vivo. Set-up: Relative injury ratings, Day #4 / Relative injury ratings, Day #5: scale not given here. Particulars: for Relative injury ratings, Day #2: Day 2 after treatment, 40 G/acre, 8 pots, rating 1-5 per pot, […] Emsorb 6900, […] mineral oil; for Relative injury ratings, Day #4: Day 4 after treatment; for Relative injury ratings, Day #5: Day 5 after treatment; for Average rating per pot: scale 1-5.
Source text: as §1

The test system of the next data set is young potato plants. In words: Effects of desiccants and desiccant combinations with other compounds on young potato plants. The format is in vivo. Set-up: All evaluations (total score): scale not given here.
Source text: as §1

Another data set has as its system plants. In words: Herbicidal activity: comparison of caprylic, pelargonic and an equimolar mixture of caprylic and pelargonic acids. The format is in vivo. Particulars: for Injury ratings based on 2 independent evaluations, 40 G/acre: 40 G/acre: chickweed, lambsquarter and green foxtail; for Injury ratings based on 2 independent evaluations, 40 G/acre / Injury ratings based on 2 independent evaluations, 60 G/acre: redroot pigweed, each pot rated 1 to 5; for Injury ratings based on 2 independent evaluations, 60 G/acre: 60 G/acre: chickweed, lambsquarter, green foxtail, crabgrass and wheat; for Average rating per pot: rating 1 to 5, 5 = complete desiccation of all plants. From the text:
The herbicides were applied in the “spray to drip” amount or at a calibrated 20-60 gallons/acre. “Spray to drip” is an uncalibrated application of fluid to foliage, where sufficient spray volume is used to sufficiently saturate the foliage surface until excess fluid begins to drip from the foliage. In general, about 5 to 200 gallons/acre, preferably 20-100 gallons/acre can be effective.

The subject of data set [5] is snapbean and potato plants. In words: Enhancement of Scythe's herbicidal activity by selected compounds. The format is in vivo. Also on record: Totals, all evaluations, Beans / Totals, all evaluations, Potatoes / Totals, all evaluations, All / evaluation, 2 days, beans / evaluation, 2 days, potatoes / evaluation, 11 days, beans / evaluation, 11 days, potatoes / evaluation, 15 days, beans / evaluation, 15 days, potatoes: scale not given here.
Source text: as §1

Data set [6] is described as follows: Measurement of pH values for test desiccants (Example 55). The format is physicochemical.
Data set [7] relates to soybeans. Briefly: Synergy comparisons of various organic acids with caprylic acid, testing soybeans. It is filed as in vivo. Particulars: 3 days after a single foliar application, average of 2 sites, soybean Stine 2250; for Overall Effect: 5 equals profound desiccation.
Source text: as §1

Data set [8] has as its system soybeans. Briefly: Synergistic relationships between succinic acid and caprylic acid at different application rates, testing soybeans. The format is in vivo. The settings on record: 2 days after a single foliar application, average of 2 sites, soybean Stine 2250; for Overall Effect: 5 equals profound desiccation.
Source text: as §1

[9] abbreviates: Day 1, one application at 40 G/acre, treatments 1-4, 9-11 in Emsorb 6900/mineral oil/Hasten, 5-8, 12-14 in 0.3% Sylgard 309.
Where [10] appears, read: Day 2, one application at 40 G/acre, treatments 1-4, 9-11 in Emsorb 6900/mineral oil/Hasten, 5-8, 12-14 in 0.3% Sylgard 309.

Several values for one entry are separate records, joined by “and”; a condition that tells them apart may be missing. Equal entries are not always repeated.

On to `O=C([O-])c1ccccc1O.[Na+]` [Na Salicylate (0.5%)], for which, in the data set with Dry Beans, the “Green Foliage, Foliage Affected (%)” value is recorded as 5-10%; the “Yellow Foliage, Foliage Affected (%)” value worked out at 30%; the “Green Foliage, Overall Effect” value came to 2; the “Yellow Foliage, Overall Effect” value was 1.

Take `O=C([O-])c1ccccc1O.[Na+]` [3% sodium salicylate, sodium salicylate]: the “Injury rating, average per plot” value in data set [1] (setting [9]) worked out at 3.8; in data set [1] (Day 2) it was 4.13; in data set [1] (Day 3) it was 4.57; in data set [1] (Day 4), 4.5; in data set [1] (Day 12) it was 4.7; in [2] (setting [10]), 4. Also, in data set [2] (Day 12), the “Injury rating, average per plot” value was 4.78. In addition, the “% desiccation (Day 12), foliage” value in [1] is 92%; in data set [2], 95%. The “% desiccation (Day 12), pods” value in data set [1] and in data set [2] was 90% in each case. The “% desiccation (Day 12), vines” value is reported as 70% in data set [1] and 90% in data set [2].

For the compound `CCCCCCCC/C=C\CCCCCCCC(=O)O` [3% oleic, oleic acid], the “Injury rating, total score for 2 evaluation, Total Rating” value in data set [3] (60 G/a plus spray to drip) was determined as 33.6. Moreover, the “Injury rating, total score for 2 evaluation, 60 G/a” value in data set [3] (60 G/a, rating 1-5 per pot, 1% Emsorb, 0.3% Hasten) is listed as 24.2. Moreover, in data set [3] (scale 1-5), the “Average rating per pot” value was 1.2. The “Injury rating, total score for 2 evaluation, Spray to drip” value in [3] (spray to drip) is 9.4.

With `N.N.O=C(O)C(O)C(O)C(=O)O` (stereo not drawn) [ammonium tartrate (1.42%), ammonium tartrate], in data set [4], the “Relative injury ratings, Day #2” value was 0; the “Relative injury ratings, Day #4” value came to 0; the “Relative injury ratings, Day #5” value came to 0; the “Average rating per pot” value is reported as 0.

With `CCCCCCCC(=O)O` [1% caprylic], the “Injury ratings of treated plants, day 1” value in the data set on young potato plants (1 day after application, 6 = complete desiccation) is reported as 2. For the same compound, the “Injury ratings of treated plants, day 3” value with young potato plants (3 days after application, 6 = complete desiccation) was 3. Further, in the data set with young potato plants (6 days after application, 6 = complete desiccation), the “Injury ratings of treated plants, day 6” value is reported as 2. In addition, the “Injury ratings of treated plants, day 17” value with young potato plants (17 days after application, 6 = complete desiccation) was 2.5. For the same compound, the “Injury ratings of treated plants, day 22” value in the data set on young potato plants (22 days after application, 6 = complete desiccation) amounted to 3. Besides, in the data set with young potato plants (27 days after application, 6 = complete desiccation), the “Injury ratings of treated plants, day 27” value worked out at 3. Besides, the “Injury ratings of treated plants, […]” value with young potato plants ([…] after application, 6 = complete desiccation) came to 2. Further, the “All evaluations (total score)” value with young potato plants (total of all evaluation times) was 17.5.

For the compound `CCCCCCCCC(=O)O` [4.5% pelargonic], in the data set with plants, the “Injury ratings based on 2 independent evaluations, 40 G/acre” value stood at 45.1; the “Injury ratings based on 2 independent evaluations, 60 G/acre” value is reported as 53.9; the “Average rating per pot” value is recorded as 4.51.

On to `N.N.O=C(O)CCC(=O)O` [di-ammonium succinate (1.26%), di-ammonium succinate], for which, in [4], the “Relative injury ratings, Day #2” value was 0; the “Relative injury ratings, Day #4” value was 0; the “Relative injury ratings, Day #5” value worked out at 0; the “Average rating per pot” value stood at 0.

With `O=C([O-])c1ccccc1O.[Na+]` [2% NaSalicylate], in [5] (beans + potatoes), the “Totals, all evaluations, All” value turned out to be 7.5. The “evaluation, 2 days, potatoes” value in [5] (potato, 2 days after application, 40 gallons/acre) was 1. Moreover, in [5] (potato, 11 days after application, 40 gallons/acre), the “evaluation, 11 days, potatoes” value is given as 1. Further, the “evaluation, 15 days, potatoes” value in [5] (potato, 15 days after application, 40 gallons/acre) turned out to be 1. For the same compound, the “evaluation, […], potatoes” value in data set [5] (potato, […] after application, 40 gallons/acre, 6 = complete desiccation) stood at 0. For the same compound, the “Totals, all evaluations, Potatoes” value in [5] (potato, total of 4 evaluation times) is 3. Besides, in data set [5] (snapbean, 2 days after application, 40 gallons/acre), the “evaluation, 2 days, beans” value is given as 1. In addition, in [5] (snapbean, 11 days after application, 40 gallons/acre), the “evaluation, 11 days, beans” value came out at 1.5. In addition, the “evaluation, 15 days, beans” value in [5] (snapbean, 15 days after application, 40 gallons/acre) was 1. In data set [5] (snapbean, […] after application, 40 gallons/acre, 6 = complete desiccation), the “evaluation, […], beans” value came out at 1. Further, in data set [5] (snapbean, total of 4 evaluation times), the “Totals, all evaluations, Beans” value is recorded as 4.5.

For the compound `O=C(O)CC(O)(CC(=O)O)C(=O)O` [Citric Acid (0.5%)], the “pH Value” in [6] amounted to 1.64. In the data set on Dry Beans, the “Green Foliage, Foliage Affected (%)” value came to 0%; the “Yellow Foliage, Foliage Affected (%)” value is recorded as 0%; the “Green Foliage, Overall Effect” value is 0; the “Yellow Foliage, Overall Effect” value was 0.

On to `O=C(O)CC(O)C(=O)O` [L-Malic Acid (0.5%)], for which the “pH Value” in data set [6] is on record as 1.69. Besides, in the data set with soybeans [7], the “Foliage Affected (%)” value was 0% and the “Overall Effect” value was 0.

As for `CCCCCCCC(=O)O` [Caprylic Acid (0.5%)], the “pH Value” in data set [6] was 3.55 and 3.30. Moreover, in the data set on Dry Beans, the “Green Foliage, Foliage Affected (%)” value is on record as 10-15%; the “Yellow Foliage, Foliage Affected (%)” value amounted to 70%; the “Green Foliage, Overall Effect” value was 2.5; the “Yellow Foliage, Overall Effect” value was 2. In the data set with soybeans [8], the “Foliage Affected (%)” value was 9% and the “Overall Effect” value is on record as 2.25. For the same compound, in the data set with soybeans [7], the “Foliage Affected (%)” value was 5% and the “Overall Effect” value amounted to 1.5.

As for `N.N.O=S(=O)(O)O` [ammonium sulfate (1.12%), ammonium sulfate], in [4], the “Relative injury ratings, Day #2” value amounted to 0; the “Relative injury ratings, Day #4” value is given as 0; the “Relative injury ratings, Day #5” value is reported as 0; the “Average rating per pot” value worked out at 0.

In the case of `C[C@H](O)C(=O)O` [L-Lactic Acid (1.0%)], in the data set on soybeans [8], the “Foliage Affected (%)” value came to 1.25% and the “Overall Effect” value was 0.5.

`O=C(O)CCC(=O)O` [Succinic Acid (0.5%)]: in data set [6], the “pH Value” was found to be 1.94. Moreover, in the data set with Dry Beans, the “Green Foliage, Foliage Affected (%)” value is 0%; the “Yellow Foliage, Foliage Affected (%)” value is 0%; the “Green Foliage, Overall Effect” value is given as 0; the “Yellow Foliage, Overall Effect” value came to 0. Besides, in the data set on soybeans [7], the “Foliage Affected (%)” value is 0% and the “Overall Effect” value came to 0.

In the case of `O=C([O-])c1ccccc1O.[Na+]` [Na Salicylate (2%)], in the data set on Dry Beans, the “Green Foliage, Foliage Affected (%)” value was 90%; the “Yellow Foliage, Foliage Affected (%)” value was >90%; the “Green Foliage, Overall Effect” value is 5; the “Yellow Foliage, Overall Effect” value is recorded as 5.

Turning to `N.N.O=C(O)CCC(=O)O` [2.52% di-ammonium succinate, di-ammonium succinate], the “Injury rating, average per plot” value in data set [1] (setting [9]), in [1] (Day 2), in data set [1] (Day 3), in [1] (Day 4), in [1] (Day 12) and in [2] (setting [10]) was 0 throughout. Also, the “Injury rating, average per plot” value in data set [2] (Day 12) came out at 0. Moreover, the “% desiccation (Day 12), foliage” value in data set [1] and in data set [2] was 0% in each case. Further, the “% desiccation (Day 12), pods” value in data set [1] and in data set [2] was 0% in each case. The “% desiccation (Day 12), vines” value in data set [1] and in [2] was 0% in each case.

`C[C@H](O)C(=O)O` [L-Lactic Acid (0.5%)]: in [6], the “pH Value” was 1.93. In the data set with soybeans [7], the “Foliage Affected (%)” value turned out to be 0% and the “Overall Effect” value was determined as 0.

Take `CCCCCCCC(=O)O` [Caprylic Acid (0.2%)]: in the data set with soybeans [8], the “Foliage Affected (%)” value is 1.25% and the “Overall Effect” value is 0.5.

As to `CCCCCCCCC(=O)O` [3.375% pelargonic], in the data set with plants, the “Injury ratings based on 2 independent evaluations, 40 G/acre” value is 43; the “Injury ratings based on 2 independent evaluations, 60 G/acre” value is reported as 53.6; the “Average rating per pot” value was 4.41.

With `O=C(O)CC(O)(CC(=O)O)C(=O)O` [CitricAcid (0.5%)], in the data set with soybeans [7], the “Foliage Affected (%)” value stood at 0% and the “Overall Effect” value is reported as 0.
